Data as given in ChEMBL document CHEMBL3352675, “Synthetic ω-3 epoxyfatty acids as antiproliferative and pro-apoptotic agents in human breast cancer cells” (2014).
Active and inactive are the calls of the source. The calls are words filed in the database; no cut-off is given here.

How the values were obtained:
MDA-MB-231 [1] = assay: Reduction in cell viability in human MDA-MB-231 cells at 1 to 40 uM after 48 to 120 hrs; assay type: functional, cell-based
MDA-MB-231 [2] = assay: Induction of apoptosis in human MDA-MB-231 cells assessed as increase in caspase 3 activity at 40 uM after 48 hrs; assay type: functional, cell-based
MDA-MB-231 [3] = assay: Reduction in ATP production in human MDA-MB-231 cells at 40 uM after 120 hrs relative to untreated control; assay type: functional, cell-based
MDA-MB-231 [4] = assay: Antiproliferative activity against human MDA-MB-231 cells assessed as reduction in confluence at 10 uM after 48 hrs by crystal violet staining method; assay type: functional, cell-based
MDA-MB-231 [5] = assay: Antiproliferative activity against human MDA-MB-231 cells assessed as reduction in confluence at 10 uM measured over 120 hrs by crystal violet staining method; assay type: functional, cell-based
MDA-MB-468 [6] = assay: Antiproliferative activity against human MDA-MB-468 cells assessed as reduction in confluence at 10 uM after 48 hrs by crystal violet staining method; assay type: functional, cell-based
T47D [7] = assay: Antiproliferative activity against human T47D cells assessed as reduction in confluence at 10 uM after 48 hrs by crystal violet staining method; assay type: functional, cell-based
T47D [8] = assay: Reduction in ATP production in human T47D cells at 1 to 40 uM after 48 to 120 hrs; assay type: functional, cell-based
MDA-MB-468 [9] = assay: Reduction in ATP production in human MDA-MB-468 cells at 1 to 40 uM after 48 to 120 hrs; assay type: functional, cell-based
MDA-MB-231 [10] = assay: Induction of cell cycle arrest in human MDA-MB-231 cells assessed as reduction in cell accumulation at S phase at 40 uM after 48 hrs by flow cytometry; assay type: functional; details: MDA-MB-231, 48 h
MDA-MB-231 [11] = assay: Induction of cell cycle arrest in human MDA-MB-231 cells assessed as reduction in cell accumulation at G2/M phase at 40 uM after 48 hrs by flow cytometry; assay type: functional; details: MDA-MB-231, 48 h
MDA-MB-231 [12] = assay: Induction of cell cycle arrest in human MDA-MB-231 cells assessed as increase in cell accumulation at […] phase at 40 uM after 48 hrs by flow cytometry; assay type: functional
MDA-MB-231 [13] = assay: Reduction in cyclin D1 immunoreactive protein expression in human MDA-MB-231 cells assessed as cyclin D1 level at 40 uM after 48 hrs; assay type: functional; parameters: scale not given: the % may be the effect or the level left
MDA-MB-231 [14] = assay: Induction of apoptosis in human MDA-MB-231 cells at 40 uM after 48 hrs by Annexin V-FITC and propidium iodide staining method; assay type: functional
[15] = molecular target: c-Jun N-terminal kinase, JNK (Homo sapiens) (UniProt P45983+P53779+P45984); assay: Induction of JNK phosphorylation in human MDA-MB-231 cells at 40 uM after 48 hrs; assay type: cell-based
MDA-MB-231 [16] = assay: Reduction in ATP production in human MDA-MB-231 cells assessed as ATP level at 40 uM after 48 hrs relative to untreated control; assay type: functional
MDA-MB-231 [17] = assay: Antiproliferative activity against human MDA-MB-231 cells assessed as reduction in confluence at 40 uM after 48 hrs by crystal violet staining method; assay type: functional, cell-based
MDA-MB-231 [18] = assay: Antiproliferative activity against human MDA-MB-231 cells assessed as reduction in confluence at >40 uM after 120 hrs by crystal violet staining method; assay type: functional, cell-based
MDA-MB-468 [19] = assay: Antiproliferative activity against human MDA-MB-468 cells assessed as reduction in confluence at 40 uM after 48 hrs by crystal violet staining method; assay type: functional, cell-based
T47D [20] = assay: Antiproliferative activity against human T47D cells assessed as reduction in confluence at 40 uM after 48 hrs by crystal violet staining method; assay type: functional, cell-based
T47D [21] = assay: Reduction in ATP production in human T47D cells at 40 uM after 48 hrs; assay type: functional, cell-based
MDA-MB-468 [22] = assay: Reduction in ATP production in human MDA-MB-468 cells at 40 uM after 48 hrs; assay type: functional, cell-based
MDA-MB-231 [23] = assay: Induction of apoptosis in human MDA-MB-231 cells assessed as viable cells level at 40 uM after 48 hrs by Annexin V-FITC and propidium iodide staining method (reference value: 92.6%); assay type: functional
MDA-MB-231 [24] = assay: Induction of apoptosis in human MDA-MB-231 cells assessed as early apoptosis cells level at 40 uM after 48 hrs by Annexin V-FITC and propidium iodide staining method (reference value: 0.5 %); assay type: functional
MDA-MB-231 [25] = assay: Induction of apoptosis in human MDA-MB-231 cells assessed as late apoptosis cells level at 40 uM after 48 hrs by Annexin V-FITC and propidium iodide staining method (reference value: 3.7%); assay type: functional
MDA-MB-231 [26] = assay: Induction of apoptosis in human MDA-MB-231 cells assessed as necrosis cells level at 40 uM after 48 hrs by Annexin V-FITC and propidium iodide staining method (reference value: 3.3%); assay type: functional
MDA-MB-231 [27] = assay: Reduction in ATP production in human MDA-MB-231 cells assessed as ATP level at 40 uM after 120 hrs relative to untreated control; assay type: functional; parameters: scale not given: the % may be the effect or the level left
MDA-MB-231 [28] = assay: Reduction in ATP production in human MDA-MB-231 cells at 10 uM after 48 to 120 hrs in presence of 10 uM AUDA; assay type: functional, cell-based
MDA-MB-231 [29] = assay: Reduction in ATP production in human MDA-MB-231 cells at 20 uM after 48 to 120 hrs in presence of 10 uM AUDA; assay type: functional, cell-based
MDA-MB-231 [30] = assay: Reduction in cell viability in human MDA-MB-231 cells at 1 to 40 uM after 48 to 120 hrs in presence of JNK inhibitor […]; assay type: functional, cell-based
MDA-MB-231 [31] = assay: Induction of apoptosis in human MDA-MB-231 cells assessed as increase in caspase 3 activity at 40 uM after 48 hrs in presence of JNK inhibitor […]; assay type: functional, cell-based
MDA-MB-231 [32] = assay: Reduction in cell viability in human MDA-MB-231 cells at 1 to 40 uM after 48 to 120 hrs in presence of JNK gene silencing RNA; assay type: functional, cell-based
MDA-MB-231 [33] = assay: Induction of apoptosis in human MDA-MB-231 cells assessed as increase in caspase 3 activity at 40 uM after 48 hrs in presence of JNK gene silencing RNA; assay type: functional, cell-based
MDA-MB-231 [34] = assay: Increase in ATP production in human MDA-MB-231 cells at 40 uM after 48 to 120 hrs; assay type: functional, cell-based

## CCCCC[C@@H]1O[C@@H]1CCCCCCCCCCCCC(=O)O (relative stereo)
MDA-MB-231 [1]
  Activity: inactive
MDA-MB-231 [2]
  Activity: inactive

## CCNC(=O)OCCCCCCCCCCCCCCCC(=O)O
MDA-MB-231 [3]
  Activity: inactive
MDA-MB-231 [2]
  Activity: Active

## CCCC(=O)NCCCCCCCCCCCCCCCC(=O)O
MDA-MB-231 [3]
  Activity: inactive
MDA-MB-231 [2]
  Activity: inactive

## CC[C@H]1O[C@H]1CCCCCCCCCCCCCCCCC(=O)O (relative stereo)
MDA-MB-231 [4]
  inhibition: Active
MDA-MB-231 [5]
  inhibition: Active
MDA-MB-468 [6]
  inhibition: Active
T47D [7]
  inhibition: inactive
T47D [8]
  Activity: inactive
MDA-MB-468 [9]
  Activity: inactive
MDA-MB-231 [10]
  inhibition at 40 µM: 33%
MDA-MB-231 [11]
  inhibition at 40 µM: 30%
MDA-MB-231 [12]
  Activity: 12%
MDA-MB-231 [13]
  Activity: 24%
MDA-MB-231 [2]
  Activity: Active
MDA-MB-231 [14]
  fold change (FC): 5
[15]
  Activity: Active

## CCCNC(=O)NCCCCCCCCCCCCCCCC(=O)O
MDA-MB-231 [16]
  Activity: inactive
MDA-MB-231 [2]
  Activity: inactive

## CCNC(=O)NCCCCCCCCCCCCCCCC(=O)O
MDA-MB-231 [17]
  inhibition: inactive
MDA-MB-231 [18]
  inhibition: Active
MDA-MB-468 [19]
  inhibition: inactive
T47D [20]
  inhibition: inactive
MDA-MB-231 [16]
  Activity: 72%
T47D [21]
  Activity: inactive
MDA-MB-468 [22]
  Activity: inactive
MDA-MB-231 [10]
  inhibition at 40 µM: 21%
MDA-MB-231 [11]
  inhibition at 40 µM: 9%
MDA-MB-231 [12]
  Activity: 6%
MDA-MB-231 [13]
  Activity: inactive
MDA-MB-231 [2]
  Activity: Active
MDA-MB-231 [14]
  Activity: inactive
MDA-MB-231 [23]
  Activity: 82.6%
MDA-MB-231 [24]
  Activity: 1.6%
MDA-MB-231 [25]
  Activity: 8.4%
MDA-MB-231 [26]
  Activity: 7.3%
[15]
  Activity: inactive

## CC[C@@H]1O[C@@H]1CCCCCCCCCCCCCCCC(=O)O (relative stereo)
MDA-MB-231 [4]
  inhibition: Active
MDA-MB-231 [5]
  inhibition: Active
MDA-MB-468 [6]
  inhibition: Active
T47D [7]
  inhibition: inactive
MDA-MB-231 [16]
  Activity: 45%
MDA-MB-231 [27]
  Activity: 3.2%
MDA-MB-231 [28]
  Activity: Active
MDA-MB-231 [29]
  Activity: inactive
T47D [8]
  Activity: Active
MDA-MB-468 [9]
  Activity: Active
MDA-MB-231 [10]
  inhibition at 40 µM: 49%
MDA-MB-231 [11]
  inhibition at 40 µM: 38%
MDA-MB-231 [12]
  Activity: 22%
MDA-MB-231 [13]
  Activity: 23%
MDA-MB-231 [2]
  Activity: Active
MDA-MB-231 [14]
  fold change (FC): 5
MDA-MB-231 [23]
  Activity: 27.3%
MDA-MB-231 [24]
  Activity: 4.1%
MDA-MB-231 [25]
  Activity: 39.2%
MDA-MB-231 [26]
  Activity: 29.4%
MDA-MB-231 [30]
  Activity: inactive
MDA-MB-231 [31]
  Activity: inactive
MDA-MB-231 [32]
  Activity: inactive
MDA-MB-231 [33]
  Activity: inactive
[15]
  Activity: Active

## CCCCNC(=O)NCCCCCCCCCCCCCCCC(=O)O
MDA-MB-231 [16]
  Activity: inactive
MDA-MB-231 [2]
  Activity: Active

## CCNC(=O)NCCCCCCCCCCCCCCCCCC(=O)O
MDA-MB-231 [17]
  inhibition: inactive
MDA-MB-231 [18]
  inhibition: Active
MDA-MB-468 [19]
  inhibition: inactive
T47D [20]
  inhibition: inactive
MDA-MB-231 [16]
  Activity: 72%
T47D [21]
  Activity: inactive
MDA-MB-468 [22]
  Activity: inactive
MDA-MB-231 [10]
  inhibition at 40 µM: 21%
MDA-MB-231 [11]
  inhibition at 40 µM: 9%
MDA-MB-231 [12]
  Activity: 6%
MDA-MB-231 [13]
  Activity: inactive
MDA-MB-231 [2]
  Activity: Active
MDA-MB-231 [14]
  Activity: inactive
[15]
  Activity: inactive

## CC[C@@H]1O[C@@H]1CCCCCCCCCCCCCCCCCC(=O)O (relative stereo)
MDA-MB-231 [4]
  inhibition: Active
MDA-MB-231 [5]
  inhibition: Active
MDA-MB-468 [6]
  inhibition: Active
T47D [7]
  inhibition: inactive
T47D [8]
  Activity: inactive
MDA-MB-468 [9]
  Activity: inactive
MDA-MB-231 [10]
  inhibition at 40 µM: 42%
MDA-MB-231 [11]
  inhibition at 40 µM: 19%
MDA-MB-231 [12]
  Activity: 15%
MDA-MB-231 [13]
  Activity: 47%
MDA-MB-231 [2]
  Activity: inactive
MDA-MB-231 [14]
  Activity: inactive
[15]
  Activity: Active

## CC(C)(C)NC(=O)NCCCCCCCCCCCCCCCC(=O)O
MDA-MB-231 [16]
  Activity: inactive
MDA-MB-231 [2]
  Activity: Active

## CCCCCCCC[C@@H]1O[C@@H]1CCCCCCCCCC(=O)O (relative stereo)
MDA-MB-231 [1]
  Activity: inactive
MDA-MB-231 [34]
  Activity: Active
MDA-MB-231 [2]
  Activity: inactive

## CCNC(=O)NCCCCCCCCCCCCCCCCC(=O)O
MDA-MB-231 [17]
  inhibition: inactive
MDA-MB-231 [18]
  inhibition: Active
MDA-MB-468 [19]
  inhibition: inactive
T47D [20]
  inhibition: inactive
MDA-MB-231 [16]
  Activity: 72%
T47D [21]
  Activity: inactive
MDA-MB-468 [22]
  Activity: inactive
MDA-MB-231 [10]
  inhibition at 40 µM: 21%
MDA-MB-231 [11]
  inhibition at 40 µM: 9%
MDA-MB-231 [12]
  Activity: 6%
MDA-MB-231 [13]
  Activity: inactive
MDA-MB-231 [2]
  Activity: Active
MDA-MB-231 [14]
  Activity: inactive
[15]
  Activity: inactive
